Columns and labels:
[1] = tested on: mutant TRAAK channels; test: Whole-cell voltage clamp of mutant TRAAK channels; assay type: cell-based, human; conditions: A35Q, E38T and V42Q mutants
Text: (§1) cDNA of the human TREK-1, TREK-2 and TRAAK channels were subcloned into the pEGFPN1 expression vector (Invitrogen), respectively. Mutations were introduced into TREK-1 or TRAAK by PCR using the QuickChange XL sitedirected mutagenesis kit (Agilent Technologies) and were subsequently confirmed by DNA sequencing.
(§2) Chinese hamster ovary (CHO) cells were provided by the Cell Bank of Chinese Academy of Sciences (Shanghai, China). CHO cells were maintained in DMEM/F12 (Gibco) supplemented with 10% fetal bovine serum (Gibco) and 100 μg ml^−1 penicillin-streptomycin (Cellgro) in a humidified incubator at 37 °C (5% CO2). For electrophysiology experiments, cells plated in 35 mm tissue culture dishes (Corning Incorporated) were transiently transfected with the plasmids using PolyJet™ reagent (SignaGen) according to the manufacturer’s instructions. Primers used in this study are listed in Supplementary Table 4.
(§3) All electrophysiological recordings were obtained using patch-clamp recordings in two different configurations: (1) whole cell for macroscopic current dose–response curves; and (2) outside-out and inside-out for macroscopic currents recordings.
(§4) All patch-clamp recordings were conducted 36–96 h after transfection with an Axopatch-200B amplifier (Molecular Devices) at room temperature (23–25 °C). […]

[2] = tested on: T1, mutant TRAAK channels; test: Whole-cell voltage clamp of mutant TRAAK channels; assay type: cell-based, human; conditions: 100 μM, L39W mutant
T1 construct: expressed in transfected cells; host or cells: CHO cells, transient transfection
Text: as §1, §2, §3, §4

[3] = tested on: TREK-1 internalization; test: Confocal microscopic analysis of channel internalization (co-localization with Rab5a); assay type: cell-based, CHO-K1 cells; conditions: 10 μM, 20 min, vs DMSO control
Description: In eight-well chamber (Thermo), CHO-K1 cells were co-transfected with PEGFP-N1-TREK1 and OFP-Rab5a. After 24 h, cells were treated with 10 μM TKDC for 20 min at room temperature and DMSO as control. At the end of incubation, cells were washed with PBS, fixed with 4% paraformaldehyde and washed with PBS. Images were taken at × 100 with scan zoom 1.74 using Leica SP8 and 3D reconstruction was done using Imaris software (Bitplane) and co-localization analysis was quantified using Imaris software. An automatic threshold of red and green channels was selected. The data represent images taken from 18 different areas (n = 18).

[4] = tested on: mice; test: Acute administration behavioral tests; assay type: in vivo, Male C57BL/6 mice; conditions: single i.p. injection, tests 30 min after administration
Description: Male C57BL/6 mice, aged 8 weeks (weighing 18–20 g) were used for acute and chronic drug administration and behavioral tests. The mice were housed four per cage under a 12-h light–dark cycle. Mice were raised under stable conditions with food and water ad libitum. All animal studies and experimental procedures were approved by the Animal Care Committees of the Shanghai Institute of Materia Medica, Chinese Academy of Sciences, and experiments were carried out in accordance with EU Directive 2010/63/EU on the protection of animals used for scientific purposes. […] The mice were removed to a sound-attenuating testing room 3–4 h before testing. […]
The apparatus was made of opaque Plexiglas (50 cm × 50 cm) and placed in a room with sound proof. […] The mice were randomly placed into the center of the sheet following 30 min drugs administration and their behaviors in the open field arena were recorded for 10 min using the camera. […] Locomotor activity and exploratory behavior were measured in the open field test and each animal was placed individually at the center for a 10 min session. The total distance moved and the number of rearing was measured in this experiment. […]
The mice were performed under normal light. […] The duration of immobility defined as floating or remaining motionless was assessed. […]

[5] = Solubility of TKDC (remark); assay type: physicochemical

In the case of `CS(=O)(=O)N(CC(=O)N1CCc2ccccc2C1)c1ccc(Cl)cc1` [TKDC, N-(4-cholorphenyl)-N-(2-(3,4-dihydrosioquinolin-2(1H)-yl)-2-oxoethyl)methanesulfonamide], the “TKDC-induced inhibition of mutant TRAAK versus WT” value [1] is reported as “enhanced inhibition”, the “inhibitory effect on L39W TRAAK mutant versus wild type” value [2] is reported as “weaker than the TKDC-induced” and the “TREK-1 internalization (co-localization with Rab5a)” value [3] is reported as “did not significantly increase TREK-1 internalization”. For the same compound, the “antidepressant-like effect in the acute treatment” value [4] was “fast antidepressant-like effect” and the solubility [5] was “not very soluble”.
